The subject of data set [1] is Pseudomonas aeruginosa (PAO1). Description: MIC broth microdilution (CLSI), Luria Broth. The data set is classed as cell-based. As to conditions: Table 1, PAO1, read-out: Pseudomonas aeruginosa MIC. As for the experimental part:
(§1) Antibiotic Susceptibility Tests (MIC Assay Protocol). The minimum inhibitory concentration (MIC) for each compound described herein was determined by the broth microdilution method as recommended by the Clinical and Laboratory Standards Institute (CLSI) (Clinical and Laboratory Standards Institute. 2009. Methods for dilution antimicrobial susceptibility tests for bacteria that grow aerobically; approved standard, eighth edition (M7-A8)). In a 96-well plate, eleven two-fold serial dilutions of each compound were made in a final volume of 100 μL Luria Broth (one column served as a blank; see the MIC assay described herein). Each well was inoculated with 10^5 bacterial cells at the initial time of incubation, prepared from a fresh log phase culture (OD600 of 0.5). […] The concentration range tested for each compound during this study was 0.10 to 100 μM. DMSO served as the vehicle and negative control in each microdilution MIC assay. DMSO was serially diluted at the same concentration as the compounds with a top concentration of 1% v/v. Bacterial strains used: Staphylococcus aureus (ATCC 25923), Staphylococcus epidermidis (ATCC 12228) and Pseudomonas aeruginosa (PAO1). Kanamycin was used as a positive control against Staphylococcus aureus and Staphylococcus epidermidis.

For data set [2], the system named is Staphylococcus aureus (ATCC 25923). Description: MIC broth microdilution (CLSI), Luria Broth. The format is cell-based. The settings on record: Staphylococcus aureus, ATCC25923, Table 1, ATCC 25923, read-out: Staphylococcus aureus MIC. As for the experimental part:
as §1
(In general: Broth dilution looks for growth in wells or tubes with falling amounts of substance.)

Data set [3] concerns Staphylococcus epidermidis (ATCC 12228). The data set can be described thus: MIC broth microdilution (CLSI), Luria Broth. The data set is classed as cell-based. The settings on record: ATCC12228, Table 1, ATCC 12228, read-out: Staphylococcus epidermidis MIC. As for the experimental part: as §1
Data set [4] in a line: Stability of DMSO stock solutions. The format is physicochemical. As for the experimental part: Compound storage. Solid stocks of the compounds described herein were stored at −80° C. in vials sealed with PARAFILM. Between 2.0 and 4.5 milligrams of each compound was weighed out, and a 10 mM DMSO stock solution of each compound were prepared. DMSO stock solutions were stored at room temperature in the dark (e.g., wrapped in aluminum foil). At this concentration, a few compounds required gentle heating to completely solubilize. DMSO stock solutions were not subjected to any freeze-thaw cycles to prevent compound breakdown. The compounds were stable in DMSO for several weeks under these mild storage conditions, with the exception of pyocyanin. Pyocyanin is unstable in DMSO at room temperature after one day. […] DMSO stock solutions of about 2 milligrams of pyocyanin were made fresh each day. The hydrolysis stability of select compounds was also tested, e.g., by subjecting these compounds to conditions mimicking the biofilm assays described herein. In one set of exemplary experiments, 3.2 to 4.5 mgs of each of compounds 18a, 12a, 23a, and 21 were treated with 1 mL of sterile water to form a mixture. […] After 24 hours, each of the mixtures was extracted with dichloromethane and evaluated, using TLC and NMR, for hydrolysis of each of compounds 18a, 12a, 23a, and 21 to compound 11.

The next data set is described as follows: Solubility observation. The data set is classed as physicochemical. As for the experimental part:
6,9-Dibromophenazine-1-carboxylic acid (18) and methyl-6,9-dibromophenazine-1-carboxylate (35). 2-((2,5-Dibromophenyl)amino)-3-nitrobenzoic acid (497 mg, 1.16 mmol) was dissolved in 19 mL 2 N aqueous sodium hydroxide and treated with sodium borohydride (131 mg, 3.47 mmol). The resulting reaction mixture was then refluxed for 1.5 hours. After this time, the reaction was made acidic with 2 N aqueous hydrochloric acid, and the resulting precipitate was filtered. The filter cake was then washed with hot chloroform to afford 143 mg (32% yield) of 6,9-dibromophenazine-1-carboxylic acid 18 as a yellow-green solid. […] A small portion of this material was converted to methyl ester 35 for characterization purposes using the following procedure. To a stirred suspension of 6,9-dibromophenazine-1-carboxylic acid (3.7 mg, 0.0097 mmol) in 0.4 mL dimethylformamide was sequentially added potassium carbonate (22 mg, 0.16 mmol) and one drop of iodomethane. The reaction was allowed to stir overnight at room temperature. The reaction was then transferred to a separatory funnel and partitioned between ethyl acetate and water. The organic layer was then washed with brine and collected. […] The crude material was taken up in chloroform and passed over a silica plug to furnish 3.8 mg (quantitative yield) of methyl-6,9-dibromophenazine-1-carboxylate 35 as a yellow solid.

The next data set deals with MRSA-2 biofilms. Description: Biofilm eradication assay (MBEC). As to conditions: for Biofilm Eradication MBEC: MRSA-2. The format is cell-based, Staphylococcus aureus. On the procedure:
Biofilm eradication assays. […] The protocol for the biofilm eradication assays was essentially the same as the protocols reported in Eun et al., J. Am. Chem. Soc., 2012, 134, 11322 and Ceri et al., J. Clin. Microbiol., 1999, 37, 1771. Biofilm eradication assays were essentially biofilm dispersion assays with the addition of a final treatment with fresh media (and incubation at 37° C. for 24 hours) instead of crystal violet staining. This final incubation allowed viable cells within the biofilm to grow. At the end of this final incubation in biofilm eradication assays, microtiter wells void of turbidity represented eradicated biofilms, and the lowest concentration at which no visible growth was observed was referred to as the minimum biofilm eradication concentration (MBEC). Potent biofilm eradicating small molecules are extremely rare (Fletcher et al., Tetrahedron, 2014, 70, 6373; Jennings et al., ChemBioChem, 2014, 15, 2211). For these experiments, MRSA-2 was selected as the model since MRSA-2 is a multidrug-resistant, biofilm-forming clinical isolate of Staphylococcus aureus (Priyaja et al., Cytotechnol., 2014, doi: 10.1007/s10616-014-9765-5).

A further data set has as its system MRSA-2. The data set can be described thus: MIC against MRSA-2. The format is cell-based. The settings on record: Staphylococcus aureus, read-out: MIC against MRSA-2. As for the experimental part: as §1, with “Kanamycin was used as a positive control against Staphylococcus aureus and Staphylococcus epidermidis.” left out
(§2) Vancomycin's activity against MRSA-2. Vancomycin was also evaluated against MRSA-2 since vancomycin has been considered to be the drug of last resort against MRSA infections.

A further data set concerns S. aureus ATCC 29213. The data set can be described thus: MIC against S. aureus ATCC 29213. The data set is classed as cell-based. The settings on record: Staphylococcus aureus, ATCC29213. On the procedure: as §2

Values after ≈ are worked out from the molar mass of the structure shown. Values joined by “and” are separate entries in the source; they are usually repeats but may differ in a detail not shown here. Equal values may be shown once. Read-outs that look alike come from different tables or passages of the source. Marks after values point to notes of the source that are not given here.

Experimental findings from patent US9856225B2, “Substituted phenazines as antimicrobial agents” (University of Florida Research Foundation, Incorporated, priority 2013, dated 2018) are described below.

What is called MIC is the smallest concentration in the dilution series that meets the test's criterion for growth inhibition. In the case of `Cn1c2cccc(=O)c-2nc2ccccc21` [Compound 1, Pyocyanin, reference compound], the MIC in data set [1] was above 100 µM; in data set [2] (range tested 0.10 to 100 μM), 50 µM; in data set [2], 10.6 µg/mL; in data set [3], 50 µM and 10.6 µg/mL. Moreover, in data set [4] (10 mM DMSO stock, room temperature, dark), the “stability in DMSO” value was “unstable”. In addition, in data set [4] (after 8 hours at room temperature), the “decomposition in d6-DMSO (NMR)” value is “significant decomposition”.

With `NC(=O)c1cccc2nc3ccccc3nc12` [Compound 4, Phenazine-1-carboxamide, reference compound], the MIC in data set [1] is above 100 µM; in data set [2] (range tested 0.10 to 100 μM), above 100 µM; in data set [2], above 22.4 µg/mL; in data set [3] it was > 100 µM and > 22.4 µg/mL.

Turning to `Oc1c(Br)ccc2nc3ccccc3nc12` [Compound 5, 2-Bromophenazin-1-ol, reference compound], the MIC was above 100 µM in data set [1]; 6.25 µM in data set [2] (range tested 0.10 to 100 μM); 1.72 µg/mL in data set [2]; 6.25 µM and 1.72 µg/mL in data set [3].

On to `Nc1cccc2nc3ccccc3nc12` [Compound 6, Phenazin-1-amine], for which the minimal inhibitory concentration (MIC) in data set [1] is above 100 µM; in data set [2] (range tested 0.10 to 100 μM) it was above 100 µM; in data set [2], above 19.6 µg/mL; in data set [3], > 100 µM and > 19.6 µg/mL.

As to `O=C(O)c1cccc2c1nc1ccccc1[n+]2[O-]` [Compound 7, 1-Carboxyphenazine 5-oxide], the MIC in data set [1] is above 100 µM; in data set [2] (range tested 0.10 to 100 μM), above 100 µM; in data set [2], above 24.1 µg/mL; in data set [3], > 100 µM and > 24.1 µg/mL.

Take `COc1ccc2nc3c(C(=O)O)cccc3nc2c1` [Compound 8, 7-Methoxyphenazine-1-carboxylic acid]: the MIC in data set [1] is above 100 µM; in data set [2] (range tested 0.10 to 100 μM) it was above 100 µM; in data set [2] it was above 25.5 µg/mL; in data set [3] it was > 100 µM and > 25.5 µg/mL.

As for `O=C(O)c1cccc2nc3cc(Br)ccc3nc12` [Compound 9, 7-Bromophenazine-1-carboxylic acid], the MIC in data set [1] is above 100 µM; in data set [2] (range tested 0.10 to 100 μM) it was 100 µM; in data set [2], 30.3 µg/mL; in data set [3], 100 µM and 30.3 µg/mL.

As to `O=C(O)c1cccc2nc3cccc(Cl)c3nc12` [Compound 10, 9-Chlorophenazine-1-carboxylic acid], the MIC in data set [1] was above 100 µM; in data set [2] (range tested 0.10 to 100 μM), 50 µM; in data set [2], 13 µg/mL; in data set [3], 50 µM and 13 µg/mL.

Turning to `COc1cc2nc3c(C(=O)O)cccc3nc2c(OC)c1OC` [Compound 12, 6,7,8-Trimethoxyphenazine-1-carboxylic acid], the MIC in data set [1] is above 100 µM; in data set [2] (range tested 0.10 to 100 μM) it was above 100 µM; in data set [2], above 31.5 µg/mL; in data set [3], > 100 µM and > 31.5 µg/mL.

Regarding `CCc1ccc2nc3c(C(=O)O)cccc3nc2c1` [Compound 13, 7-Ethylphenazine-1-carboxylic acid], the MIC in data set [1] was above 100 µM; in data set [2] (range tested 0.10 to 100 μM) it was above 100 µM; in data set [2] it was above 25.3 µg/mL; in data set [3], > 100 µM and > 25.3 µg/mL.

`O=C(O)c1cccc2nc3c(Br)ccc(Br)c3nc12` [Compound 18, 6,9-Dibromophenazine-1-carboxylic acid]: the MIC in data set [1] was above 100 µM; in data set [2] (range tested 0.10 to 100 μM), above 100 µM; in data set [2], above 38.3 µg/mL. The “solubility (in words)” value in “Solubility observation” is “extremely low solubility”.

On to `CN[C@H](CC(C)C)C(=O)N[C@H]1C(=O)N[C@@H](CC(N)=O)C(=O)N[C@H]2C(=O)N[C@H]3C(=O)N[C@H](C(=O)N[C@H](C(=O)O)c4cc(O)cc(O)c4-c4cc3ccc4O)[C@H](O)c3ccc(c(Cl)c3)Oc3cc2cc(c3O[C@@H]2O[C@H](CO)[C@@H](O)[C@H](O)[C@H]2O[C@H]2C[C@](C)(N)[C@H](O)[C@H](C)O2)Oc2ccc(cc2Cl)[C@H]1O` [Vancomycin, reference compound], for which the “Biofilm Eradication MBEC” value in the data set on MRSA-2 biofilms is reported as >2,000^d μM; with MRSA-2 biofilms (listed as vancomycin), > 2,000 μM. The “MBEC:MIC ratio” value with MRSA-2 biofilms (MRSA-2 biofilm vs planktonic) was > 2,564. The minimum inhibitory concentration (MIC) was 0.78 µM (≈ 1.13 µg/mL) in the data set on MRSA-2 and 0.39 to 0.78 µM (≈ 0.565 to 1.13 µg/mL) in the data set with S. aureus ATCC 29213.
